The structures appear in SMILES notation. pKi: −log10 of the molar value.

Chain of human full-length autophosphorylated recombinant HPK1 (Q92918 other isoform, or with tags, fused parts or gaps): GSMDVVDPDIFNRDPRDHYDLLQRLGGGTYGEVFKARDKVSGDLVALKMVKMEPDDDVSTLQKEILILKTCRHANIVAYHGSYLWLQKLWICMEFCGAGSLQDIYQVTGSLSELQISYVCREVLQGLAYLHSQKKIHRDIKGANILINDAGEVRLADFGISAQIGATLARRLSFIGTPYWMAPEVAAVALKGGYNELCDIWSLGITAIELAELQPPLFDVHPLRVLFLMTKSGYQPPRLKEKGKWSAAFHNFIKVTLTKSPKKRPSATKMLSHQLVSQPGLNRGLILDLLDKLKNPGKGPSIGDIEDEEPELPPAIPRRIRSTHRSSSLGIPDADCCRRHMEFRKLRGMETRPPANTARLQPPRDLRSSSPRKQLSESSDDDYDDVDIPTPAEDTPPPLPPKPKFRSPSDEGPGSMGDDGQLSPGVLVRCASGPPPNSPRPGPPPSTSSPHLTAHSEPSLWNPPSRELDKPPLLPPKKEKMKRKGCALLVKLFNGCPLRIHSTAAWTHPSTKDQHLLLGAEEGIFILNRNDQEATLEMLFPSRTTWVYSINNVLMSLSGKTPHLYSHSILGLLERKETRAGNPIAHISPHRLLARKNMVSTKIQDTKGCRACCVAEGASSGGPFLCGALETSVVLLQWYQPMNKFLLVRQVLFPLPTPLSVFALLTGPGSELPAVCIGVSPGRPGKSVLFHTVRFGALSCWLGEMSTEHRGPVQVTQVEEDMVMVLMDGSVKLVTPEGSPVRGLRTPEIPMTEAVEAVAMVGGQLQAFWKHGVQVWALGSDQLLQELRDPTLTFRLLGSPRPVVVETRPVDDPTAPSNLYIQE

This assay has as its target human full-length autophosphorylated recombinant HPK1 (Homo sapiens (Human), UniProt Q92918). Description: HPK1 biochemical enzyme assay (chelation-enhanced fluorescence, CHEF). The note with it: 0.5 nM HPK1, 45 μM ATP, Morrison fit. As for the experimental part: HPK1 Biochemical Enzyme Assay
HPK1 enzyme inhibition was measured by using the fluorescence-based chelation-enhanced fluorescence (CHEF) method (1), and by using a proprietary fluorescent peptide substrate, in which a cysteine residue is alkylated with a sulfonamido-oxine-based derivative to afford an amino acid termed C-Sox (CSx). […] Initial reaction velocities were determined by following the peptide fluorescence (λex=360 nm, λem=500 nm) at 30° C. for 15 min in a Tecan M1000 plate reader (Tecan Group Ltd., Mannedorf, Zurich, Switzerland).
Production of Autophosphorylated Full-Length Recombinant HPK1
The DNA sequence encoding full-length human HPK1 (Genbank NM_001042600.2) was synthesized at GenScript and contained a limited number of silent base changes to eliminate certain restriction endonuclease enzyme recognition sites, and fused to a DNA sequence encoding a Tobacco Etch Virus (TEV)-cleavable N-terminal polyhistidine purification tag. A recombinant baculovirus was prepared by using the Bac-to-Bac method (InVitrogen) and was used to infect 9 L of Sf21 insect cells. All purification steps were carried out at 4° C. Cells containing recombinant HPK1 were lysed in 50 mM HEPES-NaOH, pH 7.5, 250 mM NaCl, 1 mM tris(2-carboxyethyl)phosphine (TCEP), 10 μM leupeptin (Sigma), 10 μM E-64 (Sigma), and one ‘EDTA-free’ protease inhibitor tablet (Roche) per 75 mL buffer, centrifuged at 15,000×g for 1 h and the supernatant passed over 5 mL of ProBond IMAC resin (InVitrogen). After washing, HPK1 was eluted with 12.5 mL of 50 mM HEPES-NaOH, pH 7.5, 400 mM NaCl, 250 mM imidazole-HCl pH 7.5, 1 mM TCEP, 2 μM leupeptin, and 2 μM E-64. The eluted HPK1 was dialyzed overnight against 0.8 L of 50 mM HEPES-NaOH, pH 7.5, 400 mM NaCl, 20 mM imidazole-HCl pH 7.5, 1 mM TCEP, 2 μM leupeptin, 2 μM E-64, 2 mM ATP-NaOH pH 7.3, 5 mM MgCl2 and 1 mg TEV (this step simultaneously allows for reduction of the imidazole concentration in preparation for the subsequent reverse IMAC chromatography step, removal of the polyhistidine purification tag by TEV protease, and autophosphorylation of HPK1 in the presence of MgATP). The de-tagged and autophosphorylated HPK1 was adjusted to 40 mM imidazole-HCl, pH 7.5, and passed through a 10 mL column of ProBond resin similarly equilibrated. […] The peak fractions containing HPK1 were pooled and concentrated to approximately 2.5 mL by using a centrifugal concentrator (Millipore). The concentrated HPK1 was adjusted to 20% (v/v) glycerol by the addition of 50% (v/v) glycerol, resulting in a final formulation of 25 mM HEPES-NaOH pH 7.5, 250 mM NaCl, 0.25 mM TCEP and 20% (v/v) glycerol. […] Aliquots of the enzyme were flash frozen in liquid nitrogen and stored at −80° C. The final product contains a glycine-serine extension at the N-terminus of the full-length protein, as a result of the cloning strategy.
For orientation: pKi means the Ki on a negative log10 scale, so that one unit is a factor of ten. On to `C[C@@H](N)c1nc(C2(C)CC2)cc2c1CN(c1cccc(-c3nncn3C3CCC3)n1)C2=O` (stereo in doubt) [Example 103, 4-[(1ξ)-1-aminoethyl]-2-[6-(4-cyclobutyl-4H-1,2,4-triazol-3-yl)pyridin-2-yl]-6-(1-methylcyclo-propyl)-2,3-dihydro-1H-pyrrolo[3,4-c]pyridin-1-one], for which the pKi was 8.86. As for `C[C@H](N)c1nc(C2(C)CC2)cc2c1CN(c1cccc(-c3nncn3C3CCC3)n1)C2=O` (stereo in doubt) [Example 104, 4-[(1ξ)-1-aminoethyl]-2-[6-(4-cyclobutyl-4H-1,2,4-triazol-3-yl)pyridin-2-yl]-6-(1-methylcyclo-propyl)-2,3-dihydro-1H-pyrrolo[3,4-c]pyridin-1-one], the negative logarithm of the Ki (pKi) was 8.63.

In the case of `CC[C@@H](N)c1nc(C2(C)CC2)cc2c1CN(c1cccc(-c3nncn3C3CCC3)n1)C2=O` (stereo in doubt) [Example 105, 4-[(1ξ)-1-aminopropyl]-2-[6-(4-cyclobutyl-4H-1,2,4-triazol-3-yl)pyridin-2-yl]-6-(1-methylcyclo-propyl)-2,3-dihydro-1H-pyrrolo[3,4-c]pyridin-1-one], the negative-log Ki (pKi) was 8.70. On to `CCC(CC)n1cnnc1-c1cccc(N2Cc3c(cc(C4(C)CC4)nc3[C@H](C)N)C2=O)n1` (stereo in doubt) [Example 125, 4-[(1ξ)-1-aminoethyl]-6-(1-methyl-cyclopropyl)-2-{6-[4-(pentan-3-yl)-4H-1,2,4-triazol-3-yl]pyridin-2-yl}-2,3-dihydro-1H-pyrrolo[3,4-c]pyridin-1-one], for which the negative logarithm of the Ki (pKi) was 8.85. For the molecule `CCC(CC)n1cnnc1-c1cccc(N2Cc3c(cc(C4(C)CC4)nc3[C@@H](C)N)C2=O)n1` (stereo in doubt) [Example 126, 4-[(1ξ)-1-aminoethyl]-6-(1-methyl-cyclopropyl)-2-{6-[4-(pentan-3-yl)-4H-1,2,4-triazol-3-yl]pyridin-2-yl}-2,3-dihydro-1H-pyrrolo[3,4-c]pyridin-1-one], the pKi is 8.75. On to `CCN(C)c1cc2c(c([C@@H](C)N)n1)CN(c1cccc(-c3nnc(C)n3CC)n1)C2=O` (stereo in doubt) [Example 127, 4-[(1ξ)-1-aminoethyl]-6-[ethyl(methyl)amino]-2-[6-(4-ethyl-5-methyl-4H-1,2,4-triazol-3-yl)pyridin-2-yl]-2,3-dihydro-1H-pyrrolo[3,4-c]pyridin-1-one], for which the pKi was 8.85. As for `CCCn1cnnc1-c1cccc(N2Cc3c(cc(N(C)C)nc3[C@H](N)CC)C2=O)n1` (stereo in doubt) [Example 142, 4-[(1ξ)-1-aminopropyl]-6-(dimethyl-amino)-2-[6-(4-propyl-4H-1,2,4-triazol-3-yl)pyridin-2-yl]-2,3-dihydro-1H-pyrrolo[3,4-c]pyridin-1-one], the negative logarithm of the Ki (pKi) is 8.81. `CC[C@@H](N)c1nc(N(C)C)cc2c1CN(c1cccc(-c3nncn3CC)n1)C2=O` (stereo in doubt) [Example 146, 4-[(1ξ)-1-aminopropyl]-6-(dimethyl-amino)-2-[6-(4-ethyl-4H-1,2,4-triazol-3-yl)pyridin-2-yl]-2,3-dihydro-1H-pyrrolo[3,4-c]pyridin-1-one]: the pKi is 8.50. For `CC[C@H](N)c1nc(N(C)C)cc2c1CN(c1cccc(-c3nncn3CC)n1)C2=O` (stereo in doubt) [Example 147, 4-[(1ξ)-1-aminopropyl]-6-(dimethyl-amino)-2-[6-(4-ethyl-4H-1,2,4-triazol-3-yl)pyridin-2-yl]-2,3-dihydro-1H-pyrrolo[3,4-c]pyridin-1-one] the value was 9.00; for `CCn1cnnc1-c1cccc(N2Cc3c(cc(N(C)C)nc3[C@@H](C)N)C2=O)n1` (stereo in doubt) [Example 153, 4-[(1ξ)-1-aminoethyl]-6-(dimethyl-amino)-2-[6-(4-ethyl-4H-1,2,4-triazol-3-yl)pyridin-2-yl]-2,3-dihydro-1H-pyrrolo[3,4-c]pyridin-1-one], 8.90. As for `CC[C@@H]1CCc2nnc(-c3cccc(N4Cc5c(cc(N6CCC[C@H]6C)nc5[C@@H](C)N)C4=O)n3)n21` [Example 7, 4-[(1R)-1-aminoethyl]-2-{6-[(5R)-5-ethyl-6,7-dihydro-5H-pyrrolo[2,1-c][1,2,4]triazol-3-yl]pyridin-2-yl}-6-[(2R)-2-methylpyrroli-din-1-yl]-2,3-dihydro-1H-pyrrolo[3,4-c]pyridin-1-one], the negative-log Ki (pKi) is 8.55. As for `CC[C@@H]1CCc2nnc(-c3cccc(N4Cc5c(cc(N6CCC[C@H]6C)nc5[C@H](C)N)C4=O)n3)n21` [Example 8, 4-[(1S)-1-aminoethyl]-2-{6-[(5R)-5-ethyl-6,7-dihydro-5H-pyrrolo[2,1-c][1,2,4]triazol-3-yl]pyridin-2-yl}-6-[(2R)-2-methylpyrroli-din-1-yl]-2,3-dihydro-1H-pyrrolo[3,4-c]pyridin-1-one], the pKi was 8.25. Consider `CC[C@@H]1CCc2nnc(-c3cccc(N4Cc5c(cc(N(C)C(C)C)nc5[C@@H](C)N)C4=O)n3)n21` [Example 12, 4-[(1R)-1-aminoethyl]-2-{6-[(5R)-5-ethyl-6,7-dihydro-5H-pyrrolo[2,1-c][1,2,4]triazol-3-yl]pyridin-2-yl}-6-[methyl(propan-2-yl)amino]-2,3-dihydro-1H-pyrrolo[3,4-c]pyridin-1-one], for which the pKi was 8.70. With `CC[C@H]1CCc2nnc(-c3cccc(N4Cc5c(cc(N6CCC[C@H]6C)nc5[C@@H](N)CC)C4=O)n3)n21` [Example 15, 4-[(1S)-1-aminopropyl]-2-{6-[(5ξ)-5-ethyl-6,7-dihydro-5H-pyrrolo[2,1-c][1,2,4]triazol-3-yl]pyridin-2-yl}-6-[(2R)-2-methylpyrroli-din-1-yl]-2,3-dihydro-1H-pyrrolo[3,4-c]pyridin-1-one], the pKi was 8.07. The same measure for `C[C@H](N)c1nc(N2CCC[C@H]2C)cc2c1CN(c1cccc(-c3nnc4n3[C@@H](CF)CC4)n1)C2=O` [Example 19, 4-[(1ξ)-1-aminoethyl]-2-{6-[(5R)-5-(fluoromethyl)-6,7-dihydro-5H-pyrrolo[2,1-c][1,2,4]triazol-3-yl]pyridin-2-yl}-6-[(2R)-2-methylpyrroli-din-1-yl]-2,3-dihydro-1H-pyrrolo[3,4-c]pyridin-1-one]: 9.82; for `C[C@@H]1CCCN1c1cc2c(c([C@@H](C)N)n1)CN(c1cccc(-c3nnc4n3[C@@H](C)CC4)n1)C2=O` [Example 24, 4-[(1ξ)-1-aminoethyl]-2-{6-[(5ξ)-5-methyl-6,7-dihydro-5H-pyrrolo[2,1-c][1,2,4]triazol-3-yl]pyridin-2-yl}-6-[(2R)-2-methylpyrroli-din-1-yl]-2,3-dihydro-1H-pyrrolo[3,4-c]pyridin-1-one]: 8.75; for `CC[C@H](N)c1nc(N2CCC[C@H]2C)cc2c1CN(c1cccc(-c3nncn3CC)n1)C2=O` [Example 141, 4-[(1S)-1-aminopropyl]-2-[6-(4-ethyl-4H-1,2,4-triazol-3-yl)pyridin-2-yl]-6-[(2R)-2-methylpyrroli-din-1-yl]-2,3-dihydro-1H-pyrrolo[3,4-c]pyridin-1-one]: 9.36. Consider `CCCn1cnnc1-c1cccc(N2Cc3c(cc(N(C)C)nc3[C@@H](N)CC)C2=O)n1` [Example 143, 4-[(1ξ)-1-aminopropyl]-6-(dimethyl-amino)-2-[6-(4-propyl-4I-1,2,4-triazol-3-yl)pyridin-2-yl]-2,3-dihydro-1I-pyrrolo[3,4-c]pyridin-1-one], for which the negative logarithm of the Ki (pKi) is 8.43. `CCCn1cnnc1-c1cccc(N2Cc3c(cc(N4CCC[C@H]4C)nc3[C@@H](N)CC)C2=O)n1` [Example 145, 4-[(1S)-1-aminopropyl]-6-[(2R)-2-methylpyrroli-din-1-yl]-2-[6-(4-propyl-4H-1,2,4-triazol-3-yl)pyridin-2-yl]-2,3-dihydro-1H-pyrrolo[3,4-c]pyridin-1-one]: the pKi is 9.34. `CC[C@@H]1CCc2nnc(-c3cccc(N4Cc5c(cc(N(C)C(C)C)nc5CNC)C4=O)n3)n21` [Example 204, 2-{6-[(5R)-5-ethyl-6,7-dihydro-5H-pyrrolo[2,1-c] [1,2,4]triazol-3-yl]pyridin-2-yl}-4-[(methyl-amino)methyl]-6-[methyl (propan-2-yl)amino]-2,3-dihydro-1H-pyrrolo[3,4-c] pyridin-1-one]: the pKi was 8.89.
